Measurements published in ChEMBL document CHEMBL4325871 (Eur J Med Chem, 2019).

Experiments:
[1] = biological target: Wee1-like protein kinase (Homo sapiens) (UniProt P30291); assay: Inhibition of human WEE1 assessed as residual activity at 1 uM using MBP as substrate by [gamma-33P]-ATP assay relative to control
[2] = biological target: Muscle, skeletal receptor tyrosine-protein kinase (Homo sapiens) (UniProt O15146); assay: Inhibition of human MUSK assessed as residual activity at 1 uM using MBP as substrate by [gamma-33P]-ATP assay relative to control
[3] = biological target: Serine/threonine-protein kinase Nek3 (Homo sapiens) (UniProt P51956); assay: Inhibition of human NEK3 assessed as residual activity at 1 uM using MBP as substrate by [gamma-33P]-ATP assay relative to control
Serine/threonine-protein kinase Nek3 (Homo sapiens), sequence (P51956 whole entry): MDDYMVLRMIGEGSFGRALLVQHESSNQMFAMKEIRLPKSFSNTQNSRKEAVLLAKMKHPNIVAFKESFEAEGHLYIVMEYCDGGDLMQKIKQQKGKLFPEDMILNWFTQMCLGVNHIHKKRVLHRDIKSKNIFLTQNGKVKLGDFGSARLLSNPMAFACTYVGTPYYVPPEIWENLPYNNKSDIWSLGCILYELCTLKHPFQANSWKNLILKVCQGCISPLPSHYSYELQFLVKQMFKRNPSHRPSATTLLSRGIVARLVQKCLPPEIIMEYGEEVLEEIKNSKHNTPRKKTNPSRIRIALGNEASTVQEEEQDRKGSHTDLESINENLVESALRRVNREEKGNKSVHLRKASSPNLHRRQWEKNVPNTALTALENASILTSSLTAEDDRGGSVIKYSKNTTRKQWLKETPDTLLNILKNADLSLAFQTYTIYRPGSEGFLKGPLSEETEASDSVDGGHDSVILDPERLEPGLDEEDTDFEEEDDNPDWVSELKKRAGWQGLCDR

[4] = biological target: Serine/threonine-protein kinase pim-3 (Homo sapiens) (UniProt Q86V86); assay: Inhibition of human PIM3 assessed as residual activity at 1 uM using RSRHSSYPAGT as substrate by [gamma-33P]-ATP assay relative to control
[5] = biological target: Calcium/calmodulin-dependent protein kinase kinase 1 (Homo sapiens) (UniProt Q8N5S9); assay: Inhibition of human CAMKK1 assessed as residual activity at 1 uM using MBP as substrate by [gamma-33P]-ATP assay relative to control
[6] = biological target: Mitogen-activated protein kinase kinase kinase 12 (Homo sapiens) (UniProt Q12852); assay: Inhibition of human DLK assessed as residual activity at 1 uM using MBP as substrate by [gamma-33P]-ATP assay relative to control
Mitogen-activated protein kinase kinase kinase 12 (Homo sapiens), sequence (Q12852 whole entry): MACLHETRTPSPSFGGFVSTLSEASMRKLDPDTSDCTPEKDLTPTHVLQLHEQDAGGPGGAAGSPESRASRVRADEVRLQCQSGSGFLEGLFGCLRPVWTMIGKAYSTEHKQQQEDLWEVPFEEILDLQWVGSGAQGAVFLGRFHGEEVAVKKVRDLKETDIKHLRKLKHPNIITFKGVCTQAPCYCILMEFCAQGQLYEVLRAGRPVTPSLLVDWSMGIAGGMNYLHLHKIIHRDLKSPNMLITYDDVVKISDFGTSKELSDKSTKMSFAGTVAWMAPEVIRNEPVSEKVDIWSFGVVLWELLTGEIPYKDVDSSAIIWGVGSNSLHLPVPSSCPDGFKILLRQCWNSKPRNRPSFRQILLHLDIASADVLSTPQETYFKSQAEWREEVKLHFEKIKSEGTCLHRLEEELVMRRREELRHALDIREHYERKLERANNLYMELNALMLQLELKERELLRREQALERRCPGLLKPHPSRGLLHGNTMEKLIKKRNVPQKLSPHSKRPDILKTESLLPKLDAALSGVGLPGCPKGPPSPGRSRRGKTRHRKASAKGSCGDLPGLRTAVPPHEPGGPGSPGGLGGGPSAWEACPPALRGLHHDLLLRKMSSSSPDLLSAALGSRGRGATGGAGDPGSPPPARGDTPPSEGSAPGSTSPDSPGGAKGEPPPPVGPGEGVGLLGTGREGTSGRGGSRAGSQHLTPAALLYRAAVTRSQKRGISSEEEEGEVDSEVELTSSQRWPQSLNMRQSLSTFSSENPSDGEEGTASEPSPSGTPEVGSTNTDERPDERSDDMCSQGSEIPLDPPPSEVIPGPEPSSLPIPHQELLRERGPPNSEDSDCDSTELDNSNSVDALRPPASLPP

[7] = biological target: Vascular endothelial growth factor receptor 1 (Homo sapiens) (UniProt P17948); assay: Inhibition of human FLT1 assessed as residual activity at 1 uM using poly[Glu:Tyr] (4:1) as substrate by [gamma-33P]-ATP assay relative to control
Vascular endothelial growth factor receptor 1 (Homo sapiens), sequence (P17948 whole entry): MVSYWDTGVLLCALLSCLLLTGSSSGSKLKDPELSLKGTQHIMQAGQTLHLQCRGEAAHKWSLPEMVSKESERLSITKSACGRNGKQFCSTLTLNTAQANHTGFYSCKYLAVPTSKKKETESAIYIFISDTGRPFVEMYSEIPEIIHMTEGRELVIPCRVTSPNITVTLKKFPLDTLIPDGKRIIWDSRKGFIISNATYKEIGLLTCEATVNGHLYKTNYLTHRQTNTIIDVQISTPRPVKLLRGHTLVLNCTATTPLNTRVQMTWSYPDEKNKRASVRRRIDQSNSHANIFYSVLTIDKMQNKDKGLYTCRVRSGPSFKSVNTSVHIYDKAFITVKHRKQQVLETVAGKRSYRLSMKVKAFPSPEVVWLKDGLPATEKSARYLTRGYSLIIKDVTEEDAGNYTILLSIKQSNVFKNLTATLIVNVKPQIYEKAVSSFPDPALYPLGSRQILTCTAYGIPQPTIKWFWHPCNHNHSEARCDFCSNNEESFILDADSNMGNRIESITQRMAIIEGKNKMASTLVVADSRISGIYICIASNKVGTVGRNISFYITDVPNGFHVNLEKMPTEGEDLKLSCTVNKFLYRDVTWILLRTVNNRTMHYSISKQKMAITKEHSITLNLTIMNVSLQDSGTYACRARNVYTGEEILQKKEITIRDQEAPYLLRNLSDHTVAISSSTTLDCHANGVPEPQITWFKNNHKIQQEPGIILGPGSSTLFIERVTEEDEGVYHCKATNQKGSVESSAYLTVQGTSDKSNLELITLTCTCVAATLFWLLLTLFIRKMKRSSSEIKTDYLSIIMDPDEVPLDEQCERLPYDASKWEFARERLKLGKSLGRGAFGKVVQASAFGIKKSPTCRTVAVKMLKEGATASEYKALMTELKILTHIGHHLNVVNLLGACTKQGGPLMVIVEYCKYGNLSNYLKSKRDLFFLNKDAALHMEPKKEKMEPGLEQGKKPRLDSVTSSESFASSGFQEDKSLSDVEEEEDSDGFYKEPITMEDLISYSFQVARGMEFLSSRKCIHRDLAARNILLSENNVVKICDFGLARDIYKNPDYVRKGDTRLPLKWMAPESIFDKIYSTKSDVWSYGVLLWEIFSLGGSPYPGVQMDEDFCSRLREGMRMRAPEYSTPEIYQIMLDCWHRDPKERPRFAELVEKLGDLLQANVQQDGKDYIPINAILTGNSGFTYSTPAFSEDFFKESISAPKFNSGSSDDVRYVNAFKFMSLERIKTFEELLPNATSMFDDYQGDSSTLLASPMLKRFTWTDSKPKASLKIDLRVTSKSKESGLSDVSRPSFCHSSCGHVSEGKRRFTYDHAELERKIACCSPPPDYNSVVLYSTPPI

[8] = biological target: Dual specificity protein kinase CLK3 (Homo sapiens) (UniProt P49761); assay: Inhibition of human CLK3 assessed as residual activity at 1 uM using MBP as substrate by [gamma-33P]-ATP assay relative to control
Dual specificity protein kinase CLK3 (Homo sapiens), sequence (P49761 whole entry, looked up): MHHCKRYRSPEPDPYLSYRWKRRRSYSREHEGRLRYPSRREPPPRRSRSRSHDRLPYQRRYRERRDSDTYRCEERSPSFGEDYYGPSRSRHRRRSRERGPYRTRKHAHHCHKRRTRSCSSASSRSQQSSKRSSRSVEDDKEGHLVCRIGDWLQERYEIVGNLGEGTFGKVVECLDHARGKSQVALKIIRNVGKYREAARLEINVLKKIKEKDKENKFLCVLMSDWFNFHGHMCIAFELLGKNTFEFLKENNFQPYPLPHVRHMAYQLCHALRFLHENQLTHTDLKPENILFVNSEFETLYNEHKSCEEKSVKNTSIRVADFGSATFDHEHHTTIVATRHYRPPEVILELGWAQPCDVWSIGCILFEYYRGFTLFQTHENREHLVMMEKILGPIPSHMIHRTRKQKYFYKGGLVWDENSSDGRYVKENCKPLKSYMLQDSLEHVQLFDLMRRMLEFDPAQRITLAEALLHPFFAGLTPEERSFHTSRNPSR

[9] = biological target: Casein kinase II subunit alpha' (Homo sapiens) (UniProt P19784); assay: Inhibition of human CK2A2 assessed as residual activity at 1 uM using RRRDDDSDDD as substrate by [gamma-33P]-ATP assay relative to control
[10] = biological target: Mitogen-activated protein kinase kinase kinase 5 (Homo sapiens) (UniProt Q99683); assay: Inhibition of human ASK1 assessed as residual activity at 1 uM using MBP as substrate by [gamma-33P]-ATP assay relative to control
[11] = biological target: Glycogen synthase kinase-3 beta (Homo sapiens) (UniProt P49841); assay: Inhibition of human GSK3B assessed as residual activity at 1 uM using YRRAAVPPSPSLSRHSSPHQ(pS)EDEEE as substrate by [gamma-33P]-ATP assay relative to control
[12] = biological target: Serine/threonine-protein kinase TAO1 (Homo sapiens) (UniProt Q7L7X3); assay: Inhibition of human TAOK1 assessed as residual activity at 1 uM using MBP as substrate by [gamma-33P]-ATP assay relative to control
Serine/threonine-protein kinase TAO1 (Homo sapiens), sequence (Q7L7X3 whole entry): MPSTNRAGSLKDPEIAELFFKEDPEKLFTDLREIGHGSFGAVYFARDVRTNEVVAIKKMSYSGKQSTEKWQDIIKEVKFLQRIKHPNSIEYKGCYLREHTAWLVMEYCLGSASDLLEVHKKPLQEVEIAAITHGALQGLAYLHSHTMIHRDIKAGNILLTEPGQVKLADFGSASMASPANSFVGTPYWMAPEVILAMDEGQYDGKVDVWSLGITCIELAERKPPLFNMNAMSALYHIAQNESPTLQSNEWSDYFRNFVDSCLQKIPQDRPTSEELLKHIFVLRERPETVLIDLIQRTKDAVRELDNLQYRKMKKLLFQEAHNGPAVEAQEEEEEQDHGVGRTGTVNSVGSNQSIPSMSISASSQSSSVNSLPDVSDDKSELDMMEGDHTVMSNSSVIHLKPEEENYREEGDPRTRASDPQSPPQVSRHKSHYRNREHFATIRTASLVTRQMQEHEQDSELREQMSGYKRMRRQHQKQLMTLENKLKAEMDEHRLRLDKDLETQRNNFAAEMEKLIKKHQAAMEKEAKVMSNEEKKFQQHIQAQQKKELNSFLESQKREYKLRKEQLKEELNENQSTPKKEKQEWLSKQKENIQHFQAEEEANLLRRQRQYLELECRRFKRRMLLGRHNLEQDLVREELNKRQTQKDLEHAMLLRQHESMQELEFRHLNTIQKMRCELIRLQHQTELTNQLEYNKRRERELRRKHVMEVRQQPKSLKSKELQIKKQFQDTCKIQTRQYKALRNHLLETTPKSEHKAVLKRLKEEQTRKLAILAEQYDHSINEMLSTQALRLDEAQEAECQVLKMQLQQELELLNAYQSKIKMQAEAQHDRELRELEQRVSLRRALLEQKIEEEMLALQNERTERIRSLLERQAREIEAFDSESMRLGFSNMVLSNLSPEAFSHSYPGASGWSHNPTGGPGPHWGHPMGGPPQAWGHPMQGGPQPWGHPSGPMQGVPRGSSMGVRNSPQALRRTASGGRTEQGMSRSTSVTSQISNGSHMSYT

[13] = biological target: Protein kinase C epsilon type (Homo sapiens) (UniProt Q02156); assay: Inhibition of human PKCepsilon assessed as residual activity at 1 uM using ERMRPRKRQGSVRRRV as substrate by [gamma-33P]-ATP assay relative to control
[14] = biological target: Calcium/calmodulin-dependent protein kinase type IV (Homo sapiens) (UniProt Q16566); assay: Inhibition of human CAMK4 assessed as residual activity at 1 uM using KKLNRTLSFAEPG as substrate by [gamma-33P]-ATP assay relative to control
[15] = biological target: Fibroblast growth factor receptor 3 (Homo sapiens) (UniProt P22607); assay: Inhibition of human FGFR3 assessed as residual activity at 1 uM using poly[Glu:Tyr] (4:1) as substrate by [gamma-33P]-ATP assay relative to control
[16] = biological target: Dual specificity tyrosine-phosphorylation-regulated kinase 1A (Homo sapiens) (UniProt Q13627); assay: Inhibition of human DYRK1A assessed as residual activity at 1 uM using RRRFRPASPLRGPPK as substrate by [gamma-33P]-ATP assay relative to control
[17] = biological target: Serine/threonine-protein kinase WNK1 (Homo sapiens) (UniProt Q9H4A3); assay: Inhibition of human WNK1 assessed as residual activity at 1 uM using MBP as substrate by [gamma-33P]-ATP assay relative to control
[18] = biological target: Dual specificity mitogen-activated protein kinase kinase 1 (Homo sapiens) (UniProt Q02750); assay: Inhibition of human MEK1 assessed as residual activity at 1 uM using ERK2 as substrate by [gamma-33P]-ATP assay relative to control
Dual specificity mitogen-activated protein kinase kinase 1 (Homo sapiens), sequence (Q02750 whole entry): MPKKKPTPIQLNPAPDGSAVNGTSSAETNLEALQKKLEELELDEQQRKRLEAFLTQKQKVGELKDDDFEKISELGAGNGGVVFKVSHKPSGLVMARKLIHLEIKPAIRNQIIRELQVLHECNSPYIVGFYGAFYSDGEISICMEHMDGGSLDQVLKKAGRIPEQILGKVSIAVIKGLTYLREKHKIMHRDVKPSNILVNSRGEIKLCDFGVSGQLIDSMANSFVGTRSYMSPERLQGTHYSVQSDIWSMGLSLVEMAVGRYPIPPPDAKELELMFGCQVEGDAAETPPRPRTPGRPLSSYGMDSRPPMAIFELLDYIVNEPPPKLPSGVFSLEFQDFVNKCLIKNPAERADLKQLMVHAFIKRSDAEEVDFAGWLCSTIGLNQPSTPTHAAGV

[19] = biological target: Serine/threonine-protein kinase 17A (Homo sapiens) (UniProt Q9UEE5); assay: Inhibition of human DRAK1 assessed as residual activity at 1 uM using KKLNRTLSFAEPG as substrate by [gamma-33P]-ATP assay relative to control
Serine/threonine-protein kinase 17A (Homo sapiens), sequence (Q9UEE5 whole entry, the tested form may be a part): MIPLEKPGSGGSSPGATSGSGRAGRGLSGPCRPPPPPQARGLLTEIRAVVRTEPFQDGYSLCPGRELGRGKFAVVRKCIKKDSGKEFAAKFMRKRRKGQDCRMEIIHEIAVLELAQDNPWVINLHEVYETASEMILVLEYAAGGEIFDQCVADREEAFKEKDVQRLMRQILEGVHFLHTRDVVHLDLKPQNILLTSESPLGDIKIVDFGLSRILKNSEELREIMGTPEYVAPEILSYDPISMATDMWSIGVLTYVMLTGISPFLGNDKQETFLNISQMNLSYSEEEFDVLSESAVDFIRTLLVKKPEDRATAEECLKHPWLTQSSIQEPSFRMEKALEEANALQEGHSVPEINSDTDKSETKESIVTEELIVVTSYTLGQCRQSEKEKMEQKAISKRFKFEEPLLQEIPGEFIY

[20] = biological target: PAS domain-containing serine/threonine-protein kinase (Homo sapiens) (UniProt Q96RG2); assay: Inhibition of human PASK assessed as residual activity at 1 uM using KKLNRTLSFAEPG as substrate by [gamma-33P]-ATP assay relative to control
[21] = biological target: Receptor tyrosine-protein kinase erbB-2 (Homo sapiens) (UniProt P04626); assay: Inhibition of human ERBB2 assessed as residual activity at 1 uM using poly[Glu:Tyr] (4:1) as substrate by [gamma-33P]-ATP assay relative to control
[22] = biological target: Cyclin-dependent kinase 1/cyclin B1 (Homo sapiens) (UniProt P06493+P14635); assay: Inhibition of human CDK1/cyclinB assessed as residual activity at 1 uM using Histone H1 as substrate by [gamma-33P]-ATP assay relative to control; format: protein-complex assay
[23] = biological target: Myosin light chain kinase, smooth muscle (Homo sapiens) (UniProt Q15746); assay: Inhibition of human MLCK assessed as residual activity at 1 uM using KKLNRTLSFAEPG as substrate by [gamma-33P]-ATP assay relative to control
[24] = biological target: Dual specificity mitogen-activated protein kinase kinase 2 (Homo sapiens) (UniProt P36507); assay: Inhibition of human MEK2 assessed as residual activity at 1 uM using ERK2 as substrate by [gamma-33P]-ATP assay relative to control
[25] = biological target: Serine/threonine-protein kinase Nek6 (Homo sapiens, UniProt Q9HC98); assay: Inhibition of human NEK6 assessed as residual activity at 1 uM using casein as substrate by [gamma-33P]-ATP assay relative to control
[26] = biological target: Myosin-IIIb (Homo sapiens) (UniProt Q8WXR4); assay: Inhibition of human MYO3B assessed as residual activity at 1 uM using MBP as substrate by [gamma-33P]-ATP assay relative to control
[27] = biological target: Leucine-rich repeat serine/threonine-protein kinase 2 (Homo sapiens) (UniProt Q5S007); assay: Inhibition of human LRRK2 assessed as residual activity at 1 uM using RLGRDKYKTLRQIRQ as substrate by [gamma-33P]-ATP assay relative to control

SMILES | Activity [3] | Activity [5] | Activity [6] | Activity [7] | Activity [8] | Activity [9] | Activity [10] | Activity [12] | Activity [13] | Activity [16] | Activity [17] | Activity [18] | Activity [19] | other results
C(=C\c1ccccc1)/C[N+]12CN3CN(CN(C3)C1)C2 | 88.4 to 92.3% | 91.5 to 93.2% | 88.4 to 93.3% | 96.1 to 97.1% | 96.2 to 96.9% | 122% | 89.4 to 90.7% | 94.8 to 96% | 121 to 126% | 95.8 to 96.4% | 93.6 to 94.3% | 93 to 94.8% | 92.8 to 95.6% | Activity [1]: 112 to 120%; Activity [2]: 89.6%; Activity [4]: 104 to 107%; Activity [11]: 93.6 to 94.9%; Activity [14]: 92.2 to 94.4%; Activity [15]: 93.8 to 94.8%
ClC/C=C/C[N+]12CN3CN(CN(C3)C1)C2 | 86.9 to 92.5% | 95.5 to 95.7% | 71.9 to 74.8% | 94.7 to 95.5% | 92.6 to 95.8% | 117 to 118% | 87.6 to 89% | 95.7 to 96.8% | 121 to 133% | 95.7 to 95.8% | 92.5 to 94.9% | 94.4 to 96.6% | 90.9 to 92.8% | Activity [20]: 94.3 to 95.1%; Activity [21]: 96.7 to 96.8%; Activity [22]: 94.3 to 96.5%; Activity [23]: 90.5 to 94.9%; Activity [24]: 85.2 to 94.1%; Activity [25]: 95.3 to 95.6%; Activity [26]: 84.1 to 87.7%; Activity [27]: 91.5 to 93.5%
